Where two headings read alike, the source gives them in different places.
How the values were obtained:
[1] = bleaching of a beta-carotene/linoleate model system (antioxidant activity); assay type: biochemical; set-up: % Antioxidant Activity of Monomer / % Antioxidant Activity: concentration or dose not given beside the values; conditions: for % Antioxidant Activity: compounds of each step of the Example 8 scheme, procedure of Food Chemistry 73:285-290 (2001)
Method: The antioxidant activity of monomers and enzymatically-prepared polymeric antioxidants was compared by measuring the bleaching of a beta-carotene system. In the model system, beta-carotene undergoes rapid discoloration in the absence of an antioxidant. The assay and measurements were conducted according to the procedure described in Jayaprakasha, G. K., et al. Food Chemistry 73: 285-290 (2001) and Hidalgo, M. E., et al. Phytochemistry 37: 1585-1587 (1994), the contents of which are incorporated herein by reference. Briefly, beta-carotene (0.2 mg), linoleic acid (20 mg), and 200 mg of Tween-40 (polyoxyethylene sorbitan monopalmitate) were dissolved in 0.5 mL of chloroform. The chloroform was removed under vacuum and the resulting mixture was immediately diluted with 10 mL of distilled water and mixed well for 1-2 minutes. The resulting emulsion was further made up to 50 mL with oxygenated water. Aliquots (4 mL) of the emulsion were mixed with 0.2 mL of test sample (monomer or polymer) in dimethylformamide (DMF), so that there were 100 ppm of monomer or polymer present in the aliquot. A control was prepared by mixing 0.2 mL of DMF with 4 mL of the above emulsion. The samples were incubated at 50° C. The absorbance of all samples at 470 nm was taken initially (t=0) and continued up to 180 minutes at 15 minute intervals. Antioxidant activity is calculated based on the formula: Antioxidant Activity=100(1−(Ao−At)/(A^1o−A^1t)), • Ao=absorbance of the test sample at zero time, • A^1o=absorbance of the control at zero time, • At=absorbance of the test sample at time t (180 min), and • A^1t=absorbance of the control at time t (180 min).
The antioxidant activity of several other antioxidant monomer/polymer pairs were determined by the procedure described in Example 3.
The antioxidant activity of compounds formed in each step of the scheme shown above were measured according to the procedure published in Food Chemistry 73:285-290 (2001).

[2] = thermogravimetric analysis (TGA); assay type: physicochemical; conditions: thermal stability, FIG. 4
[3] = oil stability index of cooking oil heated to frying temperature
Method: (§1) The oils were heated to frying temperature (190° C.) and their oil stability index was measured. The oil stability index (American Oil Chemists' Society Cd 126-92) measures the amount of time before the oil begins to rapidly oxidize. A greater length of time indicates an oil with a greater antioxidant capacity, which likely corresponds to a longer potential shelf life.

[4] = as above; remark: listed apart in the source
Method: as §1

[5] = tested on: Sprague-Dawley albino rats; conditions: rat, in vivo
Method: A study was conducted based upon the standards of OECD Guidelines for Testing of Chemicals, OECD 423. Ten Sprague-Dawley albino rats were administered with 2000 mg/kg body weight poly(TBHQ) as a single dose via gastric gavage. After administration, the animals were returned to their cages and observed for signs of toxicity for up to 14 days. Body weights were determined prior to dosing and on the day of death or prior to terminal sacrifice. A second study was performed using three female rats with 500 mg/kg body weight of poly(TBHQ).

[6] = quoted for comparison; cited from earlier work
[7] = monomer, 100 ppm, 50° C., 180 min, Antioxidant Activity=100(1−(Ao−At)/(A1o−A1t))
[8] = monomer, procedure of Example 3

With `COc1ccc(O)cc1C(C)(C)C` [2-tert-butyl-4-hydroxyanisole] the “Monomer Activity” value [1, 7] was 44.24 and the “temperature up to which there was about 15% mass loss (TGA)” value [2] was “about 125 °C”.

With `CC(C)(C)c1cc(O)ccc1O` [TBHQ, tert-butyl-hydroquinone] the “% Antioxidant Activity” value [1] was 6.72%, the “oil stability index (time before the oil begins to rapidly oxidize)” value (from here on “oil stability index”) ([3]; Canola oil, 190° C., equal concentration of phenol moieties) was 10.8 h and the “oil stability index” value ([4]; Corn oil, 190° C., equal concentration of phenol moieties) was 6.6 h.

With `CC(=O)Oc1ccc(O)cc1C(C)(C)C` [c, 4-acetyloxy-3-tert-butylphenol] the “% Antioxidant Activity” value [1] was 7.9%.

In the case of “Poly(tert-butyl-hydroquinone) [Poly(TBHQ)]”, the “oil stability index” value [3] is reported as 19.2 h, the “oil stability index” value [4] is reported as 9.0 h and the “female rats that died prior to completion of the study” value [5] is reported as “Three of the five”. The “gross necropsy of surviving animals” value [5] was “None of the surviving animals showed abnormal signs”, the “necropsy finding in animals that did not survive 14 days” value [5] was “the intestines were inflamed” and the overall toxicity [5] was “relatively low toxicity to rats”. For the same compound, the survival [5] was “survived the duration of the study” and the “oral LD50” value ([5]; po) was 500 to 2000 mg/kg.

For `OCc1cccc(O)c1` [3-hydroxybenzyl alcohol], the “Monomer Activity” value [1, 7] was 1.0 and the “% Antioxidant Activity of Monomer” value [1, 8] was 1.0%.

With `Oc1ccccc1` [phenol] the “% Antioxidant Activity of Monomer” value [1] was 2.1% and the “Monomer Activity” value [1] was 2.1.

For `CC(=O)Oc1ccc(OC(C)=O)c(C(C)(C)C)c1` [b], the “% Antioxidant Activity” value [1] was 2.45%.

In the case of `[Cl-].[Na+]` [sodium chloride], the “oral LD50” value [6] is listed as “about 3000 mg/kg”.

With `Oc1ccc(N=Nc2ccccc2)cc1` [4-azophenylphenol] the “Monomer Activity” value [1, 7] was 5.4 and the “% Antioxidant Activity of Monomer” value [1, 8] was 5.4%.
